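Test compounds were applied to cells in 96-well plates for 48 hours at 5 doses. Here, GI50 denotes the concentration required for 50% inhibition of growth.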 Calls of active or inactive are those of the source. Rule as the data show it: active = GI50 up to about 1.1 µM and inactive = higher.
Experiments:
Assay in all cases: growth of human tumour cells (NCI), 48 h
DLD-1 = tested on: DLD-1
K562 = tested on: K562
IGROV-1 = tested on: IGROV-1
SK-MEL-2 = tested on: SK-MEL-2
LOX IMVI = tested on: LOX IMVI
HOP-18 = tested on: HOP-18
MOLT-4 = tested on: MOLT-4
TK-10 = tested on: TK-10
HCT-15 = tested on: HCT-15
OVCAR-8 = tested on: OVCAR-8
NCI-H460 = tested on: NCI-H460
RPMI-8226 = tested on: RPMI-8226
A549 = tested on: A549
A498 = tested on: A498
CAKI-1 = tested on: CAKI-1
OVCAR-5 = tested on: OVCAR-5
UACC-257 = tested on: UACC-257
HOP-92 = tested on: HOP-92
UO-31 = tested on: UO-31
SNB-78 = tested on: SNB-78
NCI-H522 = tested on: NCI-H522
NCI-H23 = tested on: NCI-H23
UACC-62 = tested on: UACC-62
HCC 2998 = tested on: HCC 2998
SF-539 = tested on: SF-539
SK-OV-3 = tested on: SK-OV-3
NCI-H226 = tested on: NCI-H226
SN12C = tested on: SN12C
COLO 205 = tested on: COLO 205
KM12 = tested on: KM12
M19-MEL = tested on: M19-MEL
SK-MEL-5 = tested on: SK-MEL-5
HT-29 = tested on: HT-29
SW-620 = tested on: SW-620
CCRF-CEM = tested on: CCRF-CEM
Malme-3M = tested on: Malme-3M
SNB-75 = tested on: SNB-75
SF-295 = tested on: SF-295
RXF 393 = tested on: RXF 393
HOP-62 = tested on: HOP-62
OVCAR-3 = tested on: OVCAR-3
SF-268 = tested on: SF-268
DMS-273 = tested on: DMS-273
DMS-114 = tested on: DMS-114
KM-20L2 = tested on: KM-20L2
SK-MEL-28 = tested on: SK-MEL-28
786-0 = tested on: 786-0
HL-60 = tested on: HL-60
EKVX = tested on: EKVX
ACHN = tested on: ACHN
U-251 = tested on: U-251
SNB-19 = tested on: SNB-19
LXFL 529 = tested on: LXFL 529
SR = tested on: SR
OVCAR-4 = tested on: OVCAR-4
HCT-116 = tested on: HCT-116
M14 = tested on: M14

Cc1nc(-c2cccnc2)sc1C(=O)/C=C/c1ccc(Cl)cc1Cl
GI50 (DLD-1): > 100 µM (inactive)
GI50 (K562): 76.4 µM (inactive)
GI50 (IGROV-1): > 100 µM (inactive)
GI50 (SK-MEL-2): > 100 µM (inactive)
GI50 (LOX IMVI): 95.3 µM (inactive)
GI50 (HOP-18): > 100 µM (inactive)
GI50 (MOLT-4): 73.6 µM (inactive)
GI50 (TK-10): > 100 µM (inactive)
GI50 (HCT-15): > 100 µM
GI50 (OVCAR-8): > 100 µM (inactive)
GI50 (NCI-H460): > 100 µM (inactive)
GI50 (RPMI-8226): 31.5 µM (inactive)
GI50 (A549): > 100 µM (inactive)
GI50 (A498): > 100 µM (inactive)
GI50 (CAKI-1): > 100 µM (inactive)
GI50 (OVCAR-5): > 100 µM (inactive)
GI50 (UACC-257): > 100 µM (inactive)
GI50 (HOP-92): > 100 µM (inactive)
GI50 (UO-31): > 100 µM (inactive)
GI50 (SNB-78): > 100 µM (inactive)
GI50 (NCI-H522): 94.6 µM (inactive)
GI50 (NCI-H23): > 100 µM (inactive)
GI50 (UACC-62): 83.9 µM (inactive)
GI50 (HCC 2998): > 100 µM (inactive)
GI50 (SF-539): > 100 µM (inactive)
GI50 (SK-OV-3): > 100 µM (inactive)
GI50 (NCI-H226): > 100 µM (inactive)
GI50 (SN12C): > 100 µM (inactive)
GI50 (COLO 205): > 100 µM (inactive)
GI50 (KM12): > 100 µM (inactive)
GI50 (M19-MEL): > 100 µM (inactive)
GI50 (SK-MEL-5): > 100 µM (inactive)
GI50 (HT-29): > 100 µM (inactive)
GI50 (SW-620): 71.9 µM (inactive)
GI50 (CCRF-CEM): 47.5 µM (inactive)
GI50 (Malme-3M): > 100 µM (inactive)
GI50 (SNB-75): 92.9 µM (inactive)
GI50 (SF-295): > 100 µM (inactive)
GI50 (RXF 393): 53.8 µM (inactive)
GI50 (HOP-62): > 100 µM (inactive)
GI50 (OVCAR-3): > 100 µM (inactive)
GI50 (SF-268): > 100 µM (inactive)
GI50 (DMS-273): > 100 µM (inactive)
GI50 (DMS-114): 84.3 µM (inactive)
GI50 (KM-20L2): > 100 µM (inactive)
GI50 (SK-MEL-28): > 100 µM (inactive)
GI50 (786-0): > 100 µM (inactive)
GI50 (HL-60): 51.3 µM (inactive)
GI50 (EKVX): > 100 µM (inactive)
GI50 (ACHN): > 100 µM (inactive)
GI50 (U-251): > 100 µM (inactive)

O=C(Nc1ccc([N+](=O)[O-])cc1Cl)c1cccc([N+](=O)[O-])c1O
GI50 (K562): 1.12 µM (inactive)
GI50 (SK-MEL-2): 1.6 µM (inactive)
GI50 (LOX IMVI): 1.71 µM (inactive)
GI50 (HOP-18): 0.109 µM (active)
GI50 (MOLT-4): 1.88 µM (inactive)
GI50 (OVCAR-8): 2.61 µM (inactive)
GI50 (NCI-H460): 2.21 µM (inactive)
GI50 (RPMI-8226): 0.92 µM (active)
GI50 (A549): 2.3 µM (inactive)
GI50 (A498): 0.668 µM (active)
GI50 (CAKI-1): 1.83 µM (inactive)
GI50 (OVCAR-5): 3.02 µM (inactive)
GI50 (UACC-257): 2.02 µM (inactive)
GI50 (SNB-19): 3.09 µM (inactive)
GI50 (UO-31): 1.45 µM (inactive)
GI50 (SNB-78): 2.3 µM (inactive)
GI50 (NCI-H522): 0.755 µM (active)
GI50 (NCI-H23): 1.12 µM (inactive)
GI50 (HCC 2998): 1.69 µM (inactive)
GI50 (LXFL 529): 1.09 µM (active)
GI50 (SF-539): 2.05 µM (inactive)
GI50 (NCI-H226): 2.84 µM (inactive)
GI50 (SN12C): 1.48 µM (inactive)
GI50 (SR): 2.9 µM (inactive)
GI50 (KM12): 3.11 µM (inactive)
GI50 (HT-29): 3.04 µM (inactive)
GI50 (OVCAR-4): 2.82 µM (inactive)
GI50 (SW-620): 2.59 µM (inactive)
GI50 (CCRF-CEM): 1.13 µM (inactive)
GI50 (Malme-3M): 0.552 µM (active)
GI50 (SF-295): 1.92 µM (inactive)
GI50 (SF-268): 2.7 µM (inactive)
GI50 (KM-20L2): 2.74 µM (inactive)
GI50 (SK-MEL-28): 1.6 µM (inactive)
GI50 (HL-60): 1.87 µM (inactive)
GI50 (EKVX): 2.16 µM (inactive)
GI50 (ACHN): 2.52 µM (inactive)
GI50 (U-251): 2.75 µM (inactive)

CC1(C)CC2(S(=O)(=O)c3ccccc3)ON1CC2S(=O)(=O)c1ccccc1 (stereo unspecified)
GI50 (DLD-1): > 100 µM (inactive)
GI50 (K562): 47.1 µM (inactive)
GI50 (IGROV-1): > 100 µM (inactive)
GI50 (SK-MEL-2): > 100 µM (inactive)
GI50 (LOX IMVI): 87.1 µM (inactive)
GI50 (MOLT-4): 30.8 µM (inactive)
GI50 (TK-10): > 100 µM (inactive)
GI50 (HCT-15): > 100 µM
GI50 (OVCAR-8): 74.1 µM (inactive)
GI50 (NCI-H460): > 100 µM (inactive)
GI50 (RPMI-8226): 35.7 µM (inactive)
GI50 (A549): > 100 µM (inactive)
GI50 (CAKI-1): 77.3 µM (inactive)
GI50 (OVCAR-5): > 100 µM (inactive)
GI50 (UACC-257): > 100 µM (inactive)
GI50 (SNB-19): > 100 µM (inactive)
GI50 (UO-31): 94.2 µM (inactive)
GI50 (NCI-H522): 29.4 µM (inactive)
GI50 (NCI-H23): 88.5 µM (inactive)
GI50 (UACC-62): 91.2 µM (inactive)
GI50 (HCC 2998): > 100 µM (inactive)
GI50 (HCT-116): > 100 µM (inactive)
GI50 (LXFL 529): 76.9 µM (inactive)
GI50 (SF-539): > 100 µM (inactive)
GI50 (SK-OV-3): > 100 µM (inactive)
GI50 (NCI-H226): > 100 µM (inactive)
GI50 (SN12C): > 100 µM (inactive)
GI50 (COLO 205): > 100 µM (inactive)
GI50 (SR): 39.4 µM (inactive)
GI50 (KM12): > 100 µM (inactive)
GI50 (M14): > 100 µM (inactive)
GI50 (M19-MEL): > 100 µM (inactive)
GI50 (HT-29): > 100 µM (inactive)
GI50 (OVCAR-4): 54.6 µM (inactive)
GI50 (SW-620): > 100 µM (inactive)
GI50 (CCRF-CEM): 26.8 µM (inactive)
GI50 (Malme-3M): > 100 µM (inactive)
GI50 (SNB-75): > 100 µM (inactive)
GI50 (SF-295): > 100 µM (inactive)
GI50 (RXF 393): 48.4 µM (inactive)
GI50 (HOP-62): > 100 µM (inactive)
GI50 (OVCAR-3): > 100 µM (inactive)
GI50 (SF-268): > 100 µM (inactive)
GI50 (DMS-273): 53.6 µM (inactive)
GI50 (DMS-114): 67.1 µM (inactive)
GI50 (KM-20L2): > 100 µM (inactive)
GI50 (SK-MEL-28): 86.1 µM (inactive)
GI50 (786-0): > 100 µM (inactive)
GI50 (HL-60): 26.4 µM (inactive)
GI50 (EKVX): > 100 µM (inactive)
GI50 (ACHN): > 100 µM (inactive)
GI50 (U-251): > 100 µM (inactive)

— ChEMBL document CHEMBL1201862, “PubChem BioAssay data set” (2004)
